From patent publication US9533968B2, “N-thio-anthranilamide compounds and their use as pesticides” (BASF SE, priority 2012, dated 2017)

Legend:
Type in all cases: in vivo
[1] = test system: Silverleaf Whitefly (Bemisia argentifolii); assay: Silverleaf whitefly test, sprayed cotton plants; details: at 100 ppm; silverleaf whitefly adults; 3 days after treatment
Text: (§1) The active compounds are formulated in cyclohexanone as a 10,000 ppm solution supplied in tubes. The tubes are inserted into an automated electrostatic sprayer equipped with an atomizing nozzle and they serve as stock solutions for which lower dilutions are made in 50% acetone:50% water (v/v). A nonionic surfactant (Kinetic®) is included in the solution at a volume of 0.01% (v/v).
Cotton plants at the cotyledon stage (one plant per pot) are sprayed by an automated electrostatic plant sprayer equipped with an atomizing spray nozzle. The plants are dried in the sprayer fume hood and then removed from the sprayer. Each pot is placed into a plastic cup and about 10 to 12 whitefly adults (approximately 3-5 days old) are introduced. The insects are collected using an aspirator and a nontoxic Tygon® tubing connected to a barrier pipette tip. The tip, containing the collected insects, is then gently inserted into the soil containing the treated plant, allowing insects to crawl out of the tip to reach the foliage for feeding. Cups are covered with a reusable screened lid. Test plants are maintained in a growth room at about 25° C. and about 20-40% relative humidity for 3 days, avoiding direct exposure to fluorescent light (24 hour photoperiod) to prevent trapping of heat inside the cup. Mortality is assessed 3 days after treatment, compared to untreated control plants.

[2] = test system: Diamond Back Moth (Plutella Xylostella); assay: Diamond back moth test, cabbage leaf dip; details: foliar, 72 h, read-out: mortality in comparison with untreated controls
Experimental: The active compound is dissolved at the desired concentration in a mixture of 1:1 (vol/vol) distilled water:aceteone. Surfactant (Alkamuls® EL 620) is added at a rate of 0.1% (vol/vol). The test solution is prepared at the day of use.
Leaves of cabbage are dipped in test solution and air-dried. Treated leaves are placed in petri dishes lined with moist filter paper and inoculated with ten 3rd instar larvae. Mortality is recorded 72 hours after treatment. Feeding damages are also recorded using a scale of 0-100%.

[3] = test system: Rice Green Leafhopper (Nephotettix virescens); assay: Rice green leafhopper test, sprayed rice seedlings; details: 72 h, read-out: mortality in comparison with untreated controls
Experimental: Rice seedlings are cleaned and washed 24 hours before spraying. The active compounds are formulated in 50:50 acetone:water (vol:vol), and 0.1% vol/vol surfactant (EL 620) is added. Potted rice seedlings are sprayed with 5 ml test solution, air dried, placed in cages and inoculated with 10 adults. Treated rice plants are kept at about 28-29° C. and relative humidity of about 50-60%. Percent mortality is recorded after 72 hours.

[4] = test system: Mediterranean fruitfly (Ceratitis capitata); assay: Mediterranean fruitfly test, microtiter plates with insect diet and eggs; details: 120 h, read-out: mortality in comparison with untreated controls
Experimental: For evaluating control of Mediterranean fruitfly (Ceratitis capitata) the test unit consists of microtiter plates containing an insect diet and 50-80 C. capitata eggs.
(§2) The compounds are formulated using a solution containing 75% v/v water and 25% v/v DMSO. Different concentrations of formulated compounds are sprayed onto the insect diet at 5 μl, using a custom built micro atomizer, at two replications.
After application, microtiter plates are incubated at about 28±1° C. and about 80±5% relative humidity for 5 days. Egg and larval mortality is then visually assessed.

[5] = test system: Orchid Thrips (Dichromothrips Corbetti); assay: Orchid thrips test, floral-immersion technique; details: 96 h, read-out: mortality in comparison with untreated controls
Experimental: Dichromothrips corbetti adults used for bioassay are obtained from a colony maintained continuously under laboratory conditions. For testing purposes, the test compound is diluted to a concentration of 300 ppm (wt compound: vol diluent) in a 1:1 mixture of acetone:water (vol:vol), plus 0.01% vol/vol Kinetic® surfactant.
Thrips potency of each compound is evaluated by using a floral-immersion technique. Plastic petri dishes are used as test arenas. All petals of individual, intact orchid flowers are dipped into treatment solution and allowed to dry. Treated flowers are placed into individual petri dishes along with 10-15 adult thrips. The petri dishes are then covered with lids. All test arenas are held under continuous light and a temperature of about 28° C. for duration of the assay. After 4 days, the numbers of live thrips are counted on each flower, and along inner walls of each petri dish. The level of thrips mortality is extrapolated from pre-treatment thrips numbers.

[6] = test system: Cowpea Aphid (Aphis Craccivora); assay: Cowpea aphid test, sprayed potted cowpea plants; details: read-out: mortality in comparison with untreated controls
Experimental: If not otherwise specified the test solutions are prepared as follow:
The active compound is dissolved at the desired concentration in a mixture of 1:1 (vol:vol) distilled water:aceton. The test solution is prepared at the day of use and in general at concentrations of […].
Potted cowpea plants colonized with approximately 100-150 aphids of various stages are sprayed after the pest population has been recorded. Population reduction is assessed after 24, 72, and 120 hours.

[7] = test system: vetch aphid (Megoura viciae); assay: Vetch aphid test, broad bean leaf disks in microtiter plates; details: foliar, 120 h, read-out: mortality in comparison with untreated controls
Experimental: For evaluating control of vetch aphid (Megoura viciae) through contact or systemic means the test unit consists of 24-well-microtiter plates containing broad bean leaf disks.
The compounds are formulated using a solution containing 75% v/v water and 25% v/v DMSO. Different concentrations of formulated compounds are sprayed onto the leaf disks at 2.5 μl, using a custom built micro atomizer, at two replications.
After application, the leaf disks are air-dried and 5-8 adult aphids placed on the leaf disks inside the microtiter plate wells. The aphids are then allowed to suck on the treated leaf disks and incubated at about 23±1° C. and about 50±5% relative humidity for 5 days. Aphid mortality and fecundity is then visually assessed.

[8] = test system: Tobacco Budworm (Heliothis virescens); assay: Tobacco budworm test, microtiter plates with insect diet and eggs; details: 120 h, read-out: mortality in comparison with untreated controls
Experimental: as §2, with “The test unit consisted of 96-well-microtiter plates containing an insect diet and 15-25 H. virescens eggs. The” for “The”, “compounds were” for “compounds are”, “at 10” for “at 5”
After application, microtiter plates were incubated at about 28±1° C. and about 80±5% relative humidity for 5 days. Egg and larval mortality was then visually assessed.

[9] = test system: boll weevil (Anthonomus grandis); assay: Boll weevil test, microtiter plates with insect diet and eggs; details: 120 h, read-out: mortality in comparison with untreated controls
Experimental: For evaluating control of boll weevil (Anthonomus grandis) the test unit consists of 24-well-microtiter plates containing an insect diet and 20-30 A. grandis eggs.
The compounds are formulated using a solution containing 75% v/v water and 25% v/v DMSO. Different concentrations of formulated compounds are sprayed onto the insect diet at 20 μl, using a custom built micro atomizer, at two replications.
After application, microtiter plates are incubated at about 23±1° C. and about 50±5% relative humidity for 5 days. Egg and larval mortality is then visually assessed.

[10] = test system: Southern Armyworm (Spodoptera eridania); assay: Southern armyworm test, sprayed lima bean plants; details: 96 h, read-out: mortality in comparison with untreated controls
Experimental: as §1
Lima bean plants (variety Sieva) are grown 2 plants to a pot and selected for treatment at the 1st true leaf stage. Test solutions are sprayed onto the foliage by an automated electrostatic plant sprayer equipped with an atomizing spray nozzle. The plants are dried in the sprayer fume hood and then removed from the sprayer. Each pot is placed into perforated plastic bags with a zip closure. About 10 to 11 armyworm larvae are placed into the bag and the bags zipped closed. Test plants are maintained in a growth room at about 25° C. and about 20-40% relative humidity for 4 days, avoiding direct exposure to fluorescent light (24 hour photoperiod) to prevent trapping of heat inside the bags. Mortality and reduced feeding are assessed 4 days after treatment, compared to untreated control plants.

[11] = test system: Colorado Potato Beetle (Leptinotarsa decemlineata); assay: Colorado potato beetle test, sprayed eggplant foliage; details: foliar, 96 h, read-out: mortality in comparison with untreated controls
Experimental: as §1
Eggplants are grown 2 plants to a pot and are selected for treatment at the 1st true leaf stage. Test solutions are sprayed onto the foliage by an automated electrostatic plant sprayer equipped with an atomizing spray nozzle. The plants are dried in the sprayer fume hood and then removed from the sprayer. The treated foliage is then cut and removed from the pot and placed in a Petri dish lined with moistened filter pa-per. Five beetle larvae are introduced into each Petri dish and the dish is covered by a Petri dish lid. Petri dishes are maintained in a growth room at about 25° C. and about 20-40% relative humidity for 4 days, avoiding direct exposure to fluorescent light (24 hour photoperiod) to prevent trapping of heat inside the dishes. Mortality and reduced feeding are assessed 4 days after treatment, compared to untreated control plants.

## CC(C)[S+]([O-])NC(=O)c1cc(Br)cc(Br)c1NC(=O)c1cc(C(F)(F)F)nn1-c1ncccc1Cl (stereo not drawn) [Compound 1-7]
[1]
  mortality in comparison with untreated controls: over 75%

## Cc1cc(Cl)cc(C(=O)N[S+](C)[O-])c1NC(=O)c1cc(C(F)(F)F)nn1-c1ncccc1Cl (stereo not drawn) [Compound 1-28, N-[4-chloro-2-methyl-6-(methylsulfinylcarbamoyl)phenyl]-2-(3-chloro-2-pyridyl)-5-(trifluoromethyl)pyrazole-3-carboxamide]
[2]
  mortality at 500 ppm: > 75%
[3]
  mortality at 500 ppm: > 75%
[4]
  mortality at 2500 ppm: > 75%
[5]
  mortality at 500 ppm: > 75%
[6]
  mortality at 500 ppm: > 75%
[7]
  mortality at 2500 ppm: > 75%
[8]
  mortality at 2500 ppm: > 75%
[9]
  mortality at 2500 ppm: > 75%

## CSNC(=O)c1cc(Cl)cc(C)c1NC(=O)c1cc(C(F)(F)F)nn1-c1ncccc1Cl [Compound 1-22, N-[4-chloro-2-methyl-6-(methylsulfanylcarbamoyl)phenyl]-2-(3-chloro-2-pyridyl)-5-(trifluoromethyl)pyrazole-3-carboxamide]
[2]
  mortality at 500 ppm: > 75%
[3]
  mortality at 500 ppm: > 75%
[10]
  mortality at 1 ppm: > 75%
[4]
  mortality at 2500 ppm: > 75%
[5]
  mortality at 500 ppm: > 75%
[7]
  mortality at 2500 ppm: > 75%
[11]
  mortality at 1 ppm: > 75%
[8]
  mortality at 2500 ppm: > 75%
[9]
  mortality at 2500 ppm: > 75%
